Test results from paper PMC11207111, “Assessment of the Activity of Nitroisoxazole Derivatives against Trypanosoma cruzi” (Molecules, 2024).

How the values were obtained:
[1] = system: epimastigote of T. cruzi Dm28; assay: Trypanocidal activity (MTT) on epimastigotes; type: cell-based; conditions: Trypanosoma cruzi; for killing at 100 µM: 24 h, n.a = not active, read-out: % T. cruzi Epimastigote (trypanocidal effect)
Method: As a preliminary step, a study of nitroisoxazole derivatives on the epimastigote form of T. cruzi was performed. Despite the epimastigote form not being a clinical form present in mammals, its easy handling has allowed screening for the trypanocidal activity of various compounds. It is worth noting that, during the intracellular life cycle of the parasite, a form similar to the epimastigote, which is biochemically and morphologically identical to the form present in the vector, has been described. […] RPMI 1640 medium) for 24 h. […] The effects of the compounds on trypomastigote and Vero cell viability were evaluated by tetrazolium salt reduction assay (MTT). […] The plates were kept overnight at 37 °C (28 °C for epimastigotes), and the optical density (OD) was determined using a 96-well microplate reader (Vantaa, Finland) at 570 nm. Under these conditions, the OD is directly proportional to each well’s viable number of cells. The experiments were performed in triplicate across three different assays.

[2] = Cyclic voltammetry (reduction of the nitro group); type: physicochemical; set-up: key to −EpcI / −EpcII / −EpaII / −EpaI: potentials in V vs Ag/AgCl; |ΔEp|: unit not given here
Description: The chemistry mechanism of reduction in nitroisoxazole derivatives was investigated using cyclic voltammetry.
The peak near −1.32 V corresponds to a quasi-reversible one-electron transfer, according to the criteria of Nicholson–Shain [26] (Table 1), attributable to the species −NO2/NO2.− . The latter species stable anion radical at room temperature. […] An irreversible peak at −0.93 V to the mono-electronic transfer −HNO2/HNO2.− is observed, coupled with a chemical reaction associated with […] of the formed radical. This was evidenced by the addition of NaOH (1 M), which caused a decrease in the Ic peak (Figure 2c).
As previously described, an irreversible signal assigned to hydroxylamine oxidation to a nitroso derivative is also observed for N-acylhydrazones organometallic compounds with a pendant 5-nitrofuryl group. […] Compound 7, which has the least negative reduction potential, can be attributed to introducing a nitro group in the para position of the nitroisoxazole ring. This effect can also be observed in derivatives containing halogens in the same position.
Electrochemical characterization of the new compounds was performed through cyclic voltammetry (CV) on a 693 VA Metrohm instrument (Tokyo, Japan) equipped with a 694 VA Stand converter and 693 VA processor. Potentials were recorded against the Ag/AgCl reference electrode; a hanging drop of mercury (HDME) was used as a working electrode, and platinum was used as an auxiliary electrode. Tetrabutylammonium perchlorate (TBAP, 0.1 M) in DMSO was used as a supporting electrolyte under an N2 atmosphere at room temperature. Using Nicholson´s procedure, the Ipa/Ipc values (RNO2/RNO2^−) were measured from each cyclic voltammogram with a scan rate between 0.1 and 2.5 V/s.

[3] = ORAC-FL antioxidant capacity; conditions: relative to Trolox; phosphate buffer 75 mM, pH 7.4, 37 °C
Method: To corroborate the generation of the nitro radical, the antioxidant capacity of the series under study was determined by ORAC-FL methodology, employing a fluorescent probe to capture oxygen-centered radicals (Table 2). The ORAC-FL values of the studied compounds are close to the reference value of Trolox, indicating a low antioxidant capacity. For compounds (1-3), the presence of amino substituents decreases antioxidant activity due to their […] characteristics, preventing the presence of labile hydrogens. […] Compounds 4 and 10 present similar ORAC indexes as aromatic rings with high electron density insert the transfer of labile protons. Antioxidant capacity was determined using the ORAC-fluorescence methodology (ORAC-FL). The analysis used a 96-well white polystyrene plate reader (EnSpire multimode PerkinElmer, Waltham, MA, USA). The reaction was carried out in phosphate buffer (75 mM, pH 7.4). […] A blank with FL and AAPH, using dimethyl sulfoxide instead of the antioxidant solution, was used in each assay. […] The inhibitor capacity was expressed as ORAC-FL values and quantified by integrating the area under the curve (AUCNET). All reaction mixtures were prepared in triplicate, and at least three independent assays were performed for each sample. The area under the fluorescence decay curve (AUC) was calculated by integrating the fluorescence decay where F0 is the initial fluorescence read at 0 min, and F is the fluorescence read at the time. The AUCNET corresponding to the sample was calculated by subtracting the AUC corresponding to the blank. Data were processed using Origin […].5 SR2 (San Francisco, CA, USA). The ORAC-FL indices were calculated according to the following Equation (1): (1) ORAC-[…]]

Vero mammalian cells = assay: Cytotoxicity (MTT) on Vero cells; type: cell-based; conditions: Chlorocebus sabaeus, 24 h
Method: Additionally, the cytotoxicity of the compounds on VERO mammalian cells was assessed (Table 4). […] It is observed that the majority of the derivatives present considerable cytotoxicity. […] RPMI 1640 medium) for 24 h. […] The effects of the compounds on trypomastigote and Vero cell viability were evaluated by tetrazolium salt reduction assay (MTT). […] The plates were kept overnight at 37 °C (28 °C for epimastigotes), and the optical density (OD) was determined using a 96-well microplate reader (Vantaa, Finland) at 570 nm. Under these conditions, the OD is directly proportional to each well’s viable number of cells. The experiments were performed in triplicate across three different assays.

[4] = system: trypomastigote of T. cruzi Dm28; assay: Trypanocidal activity (MTT) on trypomastigotes; type: cell-based; conditions: Trypanosoma cruzi; for killing at 100 µM: 24 h, n.a = not active, read-out: % T. cruzi Trypomastigote (trypanocidal effect); for IC50: T. cruzi Dm28, 24 h
Method: As a preliminary step, a study of nitroisoxazole derivatives on the epimastigote form of T. cruzi was performed. Despite the epimastigote form not being a clinical form present in mammals, its easy handling has allowed screening for the trypanocidal activity of various compounds. It is worth noting that, during the intracellular life cycle of the parasite, a form similar to the epimastigote, which is biochemically and morphologically identical to the form present in the vector, has been described. […] This is consistent with studies by Fonseca-Berzal et al. […] Additionally, compounds with higher activity have aromatic rings as substituents for nitroisoxazoles, confirming what was described Do […] [40]. […] It has also been determined that the presence of an isoxazole is essential for activity, as its aromatic structure contains a weak nitrogen-oxygen bond that, under different reaction conditions, can undergo ring cleavage, increasing activity. The results obtained on epimastigotes cannot be conclusive for determining potential Chagas agents, so conducting studies on the infective, extracellular, non-replicative trypomastigote form of T. cruzi present in humans is essential. […] RPMI 1640 medium) for 24 h. […] The effects of the compounds on trypomastigote and Vero cell viability were evaluated by tetrazolium salt reduction assay (MTT). […] The plates were kept overnight at 37 °C (28 °C for epimastigotes), and the optical density (OD) was determined using a 96-well microplate reader (Vantaa, Finland) at 570 nm. Under these conditions, the OD is directly proportional to each well's viable number of cells. The experiments were performed in triplicate across three different assays.

T. cruzi trypomastigotes = assay: Generation of ROS (DCFH2-DA fluorescent probe); type: cell-based, Trypanosoma cruzi; conditions: 100 µM, 40 min, vs control without compound
Method: To generate radical species on T. cruzi trypomastigotes, intracellular free radicals were determined using the fluorescent probe dichlorofluorescein (DCF).
The cultures were incubated with a 20 µM DCFH2-DA solution for 15 min at 28 °C. Then, they were centrifuged at 3500 rpm and washed 2 times with phosphate buffer saline (PBS) pH 7.4. Cells loaded with DCFH2-DA were transferred to a Nunc® fluorescence 96-well plate (Thermo Fisher Scientific Inc., Waltham, MA, USA), where the nitroisoxazoles derivates were added at 100 µM. Fluorescence (exi: 488 nm, emi: 528 nm) was recorded for 40 min in a BioTek (Winooski, VT, USA) Synergy HT spectrofluorometer. The area under increase curves over time was determined using Oring 8 software, with areas normalized to control. Results are the means ± SD of three independent experiments.

[5] = cyclic voltammetry at 2.0 V/s, DMSO, 0.1 M TBAP, vs Ag/AgCl

Structure (SMILES)	killing at 100 µM [1]	Ipa/Ipc ([2]; cyclic voltammetry at 2.0 V/s)	|ΔEp| ([2]; cyclic voltammetry at 2.0 V/s)	−EpaII [2, 5]	−EpcII [2, 5]	ORAC-FL Index [3]	melting point	−EpaI [2, 5]	−EpcI [2, 5]	IC50 ([1]; T. cruzi Dm28, 24 h, read-out: IC50 T. cruzi E (epimastigote))	IC50 (Vero mammalian cells)	killing at 100 µM [4]	IC50 [4]	ROS generation (DCF fluorescence intensity) (T. cruzi trypomastigotes)	peak potential, quasi-reversible one-electron transfer −NO2/NO2.− ([2]; cyclic voltammogram, Figure 2a)
Cc1noc(/C=C/c2ccc([N+](=O)[O-])cc2)c1[N+](=O)[O-] [Compound 7, (E)-3-Methyl-4-nitro-5-(4-nitrostyryl)isoxazole]	36 ± 2%	−0.44	70	0.64	0.71	0.57 ± 0.08	225 to 227 °C	–	–	–	–	–	–	–	–
Cc1noc(/C=C/c2ccco2)c1[N+](=O)[O-] [Compound 10, (E)-5-(2-(Furan-2-yl)vinyl)-3-methyl-4-nitroisoxazole]	42 ± 2%	−0.16	100	0.74	0.84	0.36 ± 0.07	145 to 147 °C	–	–	–	–	–	–	–	–
Cc1noc(/C=C/N(C)C)c1[N+](=O)[O-] [Compound 1, (E)-N,N-Dimethyl-2-(3-methyl-4-nitroisoxazol-5-yl)ethen-1-amine]	18 ± 1%	−0.44	140	1.19	1.33	0.9 ± 0.2	154 to 156 °C	–	–	–	–	–	–	–	–
O=CCc1ccc(Br)cc1 [Compound P2, 4-bromophenyl acetaldehyde]	5 ± 2%	–	–	–	–	–	–	–	–	–	–	–	–	–	–
Cc1noc(/C=C/c2ccccc2Br)c1[N+](=O)[O-] [Compound 15, (E)-5-(2-Bromostyryl)-3-methyl-4-nitroisoxazole]	29 ± 2%	−0.14	100	0.95	1.10	0.8 ± 0.3	169 to 172 °C	0.70	0.80	–	–	–	–	–	–
Cc1noc(/C=C/c2ccc(Br)cc2)c1[N+](=O)[O-] [Compound 17, (E)-5-(4-Bromostyryl)-3-methyl-4-nitroisoxazole]	27 ± 1%	–	–	–	1.53	0.4 ± 0.2	195 to 198 °C	–	0.81	> 400 µM	> 400 µM	15 ± 5%	> 400 µM	did not show ROS generation	–
Cc1noc(C)c1[N+](=O)[O-] [Compound P1, 3,5-dimethyl-4-nitroisoxazole]	14 ± 3%	–	–	–	–	–	–	–	–	–	–	–	–	–	–
Cc1noc(/C=C/N2CCCC2)c1[N+](=O)[O-] [Compound 2, (E)-3-Methyl-4-nitro-5-(2-(pyrrolidin-1-yl)vinyl)isoxazole]	19 ± 3%	0.32	120	1.20	1.32	0.14 ± 0.05	145 to 147 °C	–	–	–	–	–	–	–	~−1.32 V
Cc1noc(/C=C/c2ccc(C(F)(F)F)cc2)c1[N+](=O)[O-] [Compound 6, (E)-3-Methyl-4-nitro-5-(4-(trifluoromethyl)styryl)isoxazole]	28 ± 2%	–	–	–	0.74	0.8 ± 0.1	187 to 189 °C	–	–	–	–	–	–	–	–
CC1CS(=O)(=O)CCN1/N=C/c1ccc([N+](=O)[O-])o1 (stereo not shown) [Nfx, nifurtimox, reference compound]	98.9 ± 0.3%	–	–	–	–	–	–	–	–	–	172.9 ± 0.1 µM	74 ± 1%	10.04 ± 0.1 µM	–	–
Cc1noc(/C=C/c2ccccc2)c1[N+](=O)[O-] [Compound 4, (E)-3-Methyl-4-nitro-5-styrylisoxazole]	47 ± 4%	−0.09	90	0.80	0.89	0.33 ± 0.06	176 to 178 °C	–	–	–	–	0%	–	–	–
Cc1ccc(-n2cc(/C=C/c3onc(C)c3[N+](=O)[O-])c3ccccc32)cc1 [Compound 14, (E)-3-Methyl-4-nitro-5-(2-(1-(p-tolyl)-1H-indol-3-yl)vinyl)isoxazole]	27 ± 2%	−0.32	120	0.84	0.96	0.4 ± 0.1	208 to 211 °C	–	0.72	–	–	3 ± 1%	–	–	–
Cc1c(C)c2c(c(C)c1O)CCC(C)(C(=O)O)O2 (stereo not shown) [Trolox, reference compound]	–	–	–	–	–	1.00 ± 0.01	–	–	–	–	–	–	–	–	–
